ChEMBL document CHEMBL1132935, “Design and synthesis of aryloxyethyl thiocyanate derivatives as potent inhibitors of Trypanosoma cruzi proliferation” (J Med Chem, 2000)

Experiments:
Trypanosoma cruzi [1] = test: 50% inhibitory concentration against the growth of Trypanosoma cruzi (Epimastigotes); format: functional, organism-based
Trypanosoma cruzi [2] = test: 90% inhibitory concentration against the growth of Trypanosoma cruzi (Epimastigotes); format: functional
Trypanosoma cruzi [3] = test: 50% inhibitory concentration against the growth of intracellular Trypanosoma cruzi; format: functional, organism-based

Compound | IC50 (Trypanosoma cruzi [1]) [µM] | IC90 (Trypanosoma cruzi [2]) [µM] | IC50 (Trypanosoma cruzi [3]) [µM]
N#CSCCNc1ccc(Oc2ccccc2)cc1 | 141 | – | –
C[C@@H](COc1ccc(Oc2ccccc2)cc1)SC#N | 25 | – | –
N#CSCCOc1cccc(Br)c1 | < 4 | 27 | –
N#CSCCOc1ccc(Oc2ccccc2)cc1Br | 1.4 | 18 | 64.5
N#CSCCOc1ccc(Oc2cccc(Br)c2)cc1 | 2.9 | – | –
Cc1cccc(C)c1Oc1ccc(OCCOC2CCCCO2)cc1 (stereo not drawn) | > 60 | – | –
c1ccc(Oc2ccc(COC3CCCCO3)cc2)cc1 (stereo not drawn) | 102 | – | –
Brc1cccc(Oc2ccc(OCCOC3CCCCO3)cc2)c1 (stereo not drawn) | 138 | – | –
Brc1cccc(OCCOC2CCCCO2)c1 (stereo not drawn) | 104 | – | –
Cc1ccccc1Oc1ccc(OCCOC2CCCCO2)cc1 (stereo not drawn) | 143 | – | –
CC(=O)N(CCOC1CCCCO1)c1ccc(Oc2ccccc2)cc1 (stereo not drawn) | 211 | – | –
Cc1ccccc1Oc1ccc(OCCSC#N)cc1 | 2.7 | 3.5 | 41.7
C[C@H](COc1ccc(Oc2ccccc2)cc1)SC#N | > 82 | – | –
O=c1c2ccccc2oc2ccc(OCCOC3CCCCO3)cc12 (stereo not drawn) | > 60 | – | –
N#CSCCOc1ccc(Oc2ccccc2)cc1Cl | 24.5 | – | –
N#CSCc1ccc(Oc2ccccc2)cc1 | 18.7 | – | –
N#CSCCOc1ccc(Cl)cc1Cl | 1 | 30 | > 100
N#CSCCSc1ccc(Oc2ccccc2)cc1 | 0.87 | 32 | –
N#CSCCOc1ccc(Oc2ccccc2)cc1I | 1.8 | 23 | > 100
Clc1ccc(OCCOC2CCCCO2)cc1 (stereo not drawn) | > 390 | – | –
N#CSCCOc1ccc(Cl)cc1 | 14.1 | – | –
CC(=O)N(CCSC#N)c1ccc(Oc2ccccc2)cc1 | 14.4 | – | –
Ic1cc(Oc2ccccc2)ccc1OCCOC1CCCCO1 (stereo not drawn) | 45 | – | –
N#CSCCOc1ccc(Oc2ccccc2)cc1 | – | 3.5 | 16
CC(=O)N(CCO)c1ccc(Oc2ccccc2)cc1 | 277 | – | –
c1ccc(Oc2ccc(SCCOC3CCCCO3)cc2)cc1 (stereo not drawn) | 291 | – | –
N#CSCCOc1ccc2oc3ccccc3c(=O)c2c1 | 54 | – | –
